# From PMC5386833 (Oncogene, 2016)
# Molecular target: BRCA1/BARD1 (Homo sapiens, UniProt P38398+Q99728)
# Test: ReBiL luminescence protein interaction assay, BRCA1/BARD1 negative control
# Settings: dosing above 10 μM, 10% serum
# Chain of BRCA1/BARD1 (P38398 whole entry, species assumed): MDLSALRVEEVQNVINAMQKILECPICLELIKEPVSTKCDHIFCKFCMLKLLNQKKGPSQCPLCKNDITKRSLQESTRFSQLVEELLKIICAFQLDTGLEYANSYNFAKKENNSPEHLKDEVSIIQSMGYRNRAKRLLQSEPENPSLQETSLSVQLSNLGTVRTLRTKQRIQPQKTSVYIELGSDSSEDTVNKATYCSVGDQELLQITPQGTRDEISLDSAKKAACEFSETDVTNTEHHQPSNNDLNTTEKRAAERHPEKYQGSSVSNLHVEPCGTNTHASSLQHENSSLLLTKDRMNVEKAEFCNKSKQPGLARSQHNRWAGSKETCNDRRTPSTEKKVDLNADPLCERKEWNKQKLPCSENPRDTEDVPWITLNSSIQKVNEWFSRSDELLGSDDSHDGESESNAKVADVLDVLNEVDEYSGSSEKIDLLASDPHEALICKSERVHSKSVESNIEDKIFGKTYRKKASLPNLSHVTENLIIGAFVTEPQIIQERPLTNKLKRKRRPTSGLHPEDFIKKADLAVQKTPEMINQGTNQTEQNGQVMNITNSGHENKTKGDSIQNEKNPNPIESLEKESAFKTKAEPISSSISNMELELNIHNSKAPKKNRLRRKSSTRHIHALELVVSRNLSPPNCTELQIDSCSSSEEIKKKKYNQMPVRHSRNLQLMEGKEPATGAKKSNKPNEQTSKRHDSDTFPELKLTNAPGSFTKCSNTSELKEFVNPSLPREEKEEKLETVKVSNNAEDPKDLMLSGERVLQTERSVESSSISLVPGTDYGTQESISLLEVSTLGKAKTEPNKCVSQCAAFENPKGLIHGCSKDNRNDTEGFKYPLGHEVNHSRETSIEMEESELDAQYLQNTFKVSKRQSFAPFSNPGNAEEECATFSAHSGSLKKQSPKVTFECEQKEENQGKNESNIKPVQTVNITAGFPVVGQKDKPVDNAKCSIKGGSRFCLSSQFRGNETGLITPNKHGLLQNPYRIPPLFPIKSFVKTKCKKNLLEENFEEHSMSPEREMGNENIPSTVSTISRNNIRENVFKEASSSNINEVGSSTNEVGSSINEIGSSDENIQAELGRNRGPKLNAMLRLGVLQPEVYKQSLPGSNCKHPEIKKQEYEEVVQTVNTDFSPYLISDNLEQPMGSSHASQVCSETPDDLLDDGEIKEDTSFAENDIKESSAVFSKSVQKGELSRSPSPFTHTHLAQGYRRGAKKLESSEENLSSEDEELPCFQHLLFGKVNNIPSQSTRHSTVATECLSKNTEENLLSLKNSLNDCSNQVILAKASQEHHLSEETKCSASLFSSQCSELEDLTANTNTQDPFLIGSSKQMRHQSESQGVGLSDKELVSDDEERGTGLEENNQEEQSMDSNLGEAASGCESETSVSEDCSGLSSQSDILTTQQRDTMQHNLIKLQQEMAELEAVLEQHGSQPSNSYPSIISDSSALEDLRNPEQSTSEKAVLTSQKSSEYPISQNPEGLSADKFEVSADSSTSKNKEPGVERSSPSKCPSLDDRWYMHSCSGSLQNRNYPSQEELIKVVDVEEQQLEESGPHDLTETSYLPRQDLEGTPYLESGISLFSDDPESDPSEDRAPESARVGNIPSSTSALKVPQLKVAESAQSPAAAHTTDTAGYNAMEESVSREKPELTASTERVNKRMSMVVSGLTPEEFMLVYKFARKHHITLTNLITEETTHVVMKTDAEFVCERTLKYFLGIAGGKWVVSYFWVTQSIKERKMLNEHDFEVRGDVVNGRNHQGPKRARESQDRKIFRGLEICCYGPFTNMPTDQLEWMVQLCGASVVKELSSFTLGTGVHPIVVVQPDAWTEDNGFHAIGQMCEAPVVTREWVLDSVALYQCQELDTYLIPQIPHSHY
# Chain of BRCA1/BARD1 (Q99728 whole entry, species assumed): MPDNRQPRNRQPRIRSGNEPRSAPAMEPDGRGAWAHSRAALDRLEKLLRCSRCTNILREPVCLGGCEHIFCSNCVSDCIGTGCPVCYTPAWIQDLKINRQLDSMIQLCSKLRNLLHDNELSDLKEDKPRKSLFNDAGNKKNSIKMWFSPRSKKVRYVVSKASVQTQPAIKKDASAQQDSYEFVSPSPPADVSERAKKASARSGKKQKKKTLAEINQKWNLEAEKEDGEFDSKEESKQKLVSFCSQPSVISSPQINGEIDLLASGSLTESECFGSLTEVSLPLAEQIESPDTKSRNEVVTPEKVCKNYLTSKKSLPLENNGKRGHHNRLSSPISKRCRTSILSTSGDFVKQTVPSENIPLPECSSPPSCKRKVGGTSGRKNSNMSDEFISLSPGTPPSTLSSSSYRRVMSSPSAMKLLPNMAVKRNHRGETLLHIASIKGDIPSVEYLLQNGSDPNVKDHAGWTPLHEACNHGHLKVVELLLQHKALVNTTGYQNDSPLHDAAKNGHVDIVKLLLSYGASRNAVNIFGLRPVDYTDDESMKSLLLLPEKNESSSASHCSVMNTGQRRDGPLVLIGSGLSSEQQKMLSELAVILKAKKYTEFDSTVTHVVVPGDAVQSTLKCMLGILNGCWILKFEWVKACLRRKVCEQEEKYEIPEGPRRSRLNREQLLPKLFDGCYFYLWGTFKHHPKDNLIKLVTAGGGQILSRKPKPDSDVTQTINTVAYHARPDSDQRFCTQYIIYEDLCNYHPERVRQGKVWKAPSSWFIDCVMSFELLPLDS
compound,measurement,value
COc1ccc(C2=N[C@@H](c3ccc(Cl)cc3)[C@@H](c3ccc(Cl)cc3)N2C(=O)N2CCNC(=O)C2)c(OC(C)C)c1 [Nutlin-3a],ReBiL signal suppression in BRCA1/BARD1 cell line above 10 μM,nonspecific activity
